Assay results reported in the NIST ThermoML archive (doi:10.1021/acs.jced.5b00393).
± gives the expanded uncertainty stated by the source.

Columns and labels:
[1] = mn = molality of the nth substance listed, in mol/kg; conditions: 298.15 K, 101 kPa, Liquid, Pycnometric method
[2] = refractive index (Na D-line) (dimensionless); mn = molality of the nth substance listed, in mol/kg; conditions: 298.15 K, 101 kPa, Liquid, Standard Abbe refractometry

mass density ([1]; m1 = 1.821) [kg/m3]	refractive index ([2]; m1 = 1.821)	mass density ([1]; m1 = 4.734) [kg/m3]	refractive index ([2]; m1 = 4.734)	SMILES
1074.1 ± 1.1	1.3439 ± 0.0004			N[C@@H](CS)C(=O)O [(R)-2-amino-3-mercaptopropanoic acid] + O
		1242.1 ± 1.1	1.4155 ± 0.0004	NCCCC[C@H](N)C(=O)O [L-lysine] + O
